{
  "source": "patent US20240408004A1",
  "about": "“COMPOSITIONS, DEVICES, AND METHODS FOR THE TREATMENT OF OVERDOSE AND REWARD-BASED DISORDERS” (priority 2018, published 2024)",
  "key": {"[1]": {"conditions": "cited from earlier work"}, "[2]": {"test": "Safety assessments of Example 4 study (adverse events, nasal irritation, vital signs, ECG)", "assay_type": "in vivo, human", "description": "Sudy Goals. […] Secondary endpoints included adverse events (AEs), vital signs (heart rate, sitting blood pressure, and respiration rate), electrocardiogram (ECG), clinical laboratory changes and nasal irritation using the nasal irritation scale.\nOn dosing days, the order of assessments were ECG, vital signs, then PK blood collection when scheduled at the same nominal times. The target time of the PK blood collection was considered the most critical and if the collection was more than ±1 minute from the scheduled time for the first 60 minutes of collections or more than ±5 minutes for the scheduled time points thereafter, this was considered a protocol deviation. ECG and vital signs were collected within the 10 minute period before the nominal time of blood collections. At screening, admission, and discharge, ECG, and vital signs were checked once per day. […] Clinical laboratory measurements were repeated after the last PK blood draw prior to clinic discharge. AEs were assessed by spontaneous reports by subjects, by examination of the nasal mucosa, by measuring vital signs, ECG, and clinical laboratory parameters.\nSafety Assessments. […] ECG and vital signs was performed within the 10 minute period before the nominal time for post-dose blood collections. AEs were recorded from the start of study drug administration until clinic discharge."}, "[3]": {"test": "Intranasal naltrexone formulation experiments (solubility, crystallization, discoloration, osmolality)", "assay_type": "physicochemical", "description": "A series of experiments were performed to identify formulations of naltrexone which would make pharmaceutically appropriate intranasal products as disclosed herein.\nA range of formulations were tested with the following observations. […] Several preparations were made at 30 mg/mL thereafter, which additionally contained fixed amounts of (dodecyl maltoside 0.25%) and NaCl (about 0.74%), and varying amounts of preservative (benzalkonium chloride, 0-0.02%) and stabilizing agent (EDTA, 0-0.3%). Crystallization behavior and discoloration were visually monitored. All of these formulations developed crystals when stored under refrigerated conditions. […] The 0.3% EDTA formulation appeared to resist yellowing for the longest period of time. Thereafter, a range of co-solvents were assessed for their potential to reduce crystallization of drug out of solution. Polyethylene glycol (PEG), propylene glycol, and benzyl alcohol were tested."}, "rabbit eye": {"system": "rabbit eye", "conditions": "concentrations of 25%; cited from earlier work"}, "[4]": {"conditions": "intranasal formulation with […] dodecyl maltoside"}},
  "data": [
    {"compound": "CNS(=O)(=O)Cc1ccc2[nH]cc(CCN(C)C)c2c1", "note": "[sumatriptan]", "values": [
      {"measurement": "increase of total exposure (AUC)", "setting": "[1]; intranasal formulation with […] dodecyl maltoside vs Imitrex nasal spray", "value": 32, "unit": "%"},
      {"measurement": "Tmax", "setting": "[1]; [4]", "value": "8 to 10", "unit": "min"},
      {"measurement": "increase of maximum plasma concentration in comparison to Imitrex nasal spray", "setting": "[1]; [4]", "value": "almost four-fold"}
    ]},
    {"compound": "O=C1CC[C@@]2(O)[C@H]3Cc4ccc(O)c5c4[C@@]2(CCN3CC2CC2)[C@H]1O5", "note": "[naltrexone, 17-(cyclopropylmethyl)-4,5α-epoxy-3,14-dihydroxymorphinan-6-one]", "values": [
      {"measurement": "subjects with dizziness", "setting": "[2]; 5 subjects, regardless of severity or attribution", "value": 36, "unit": "%"},
      {"measurement": "subjects with AEs of the Nervous System Disorders SOC", "setting": "[2]; 7 subjects", "value": 50, "unit": "%"},
      {"measurement": "subjects who experienced at least one AE", "setting": "[2]; 10 of 14 subjects, any dosing period, any relationship to drug", "value": 71, "unit": "%"},
      {"measurement": "discontinuation from the study due to AEs", "setting": "[2]; hypertension, syncope, out-of-range pre-dose vital signs", "value": "Three subjects were discontinued"},
      {"measurement": "severe AEs", "setting": "[2]; in vivo", "value": "No severe AEs were observed"},
      {"measurement": "appearance of 50 mg/mL preparation", "setting": "[3]; room temperature, indicating incomplete dissolution", "value": "cloudy"},
      {"measurement": "solubility", "setting": "[3]; thermodynamic from solid, ambient temperature, read-out: solubility limit in solution", "value": "~40", "unit": "mg/mL"}
    ]},
    {"compound": "CCCCCCCCCCCCO[C@@H]1O[C@H](CO)[C@@H](O[C@H]2O[C@H](CO)[C@@H](O)[C@H](O)[C@H]2O)[C@H](O)[C@H]1O", "note": "[Intravail®, 1-O-n-dodecyl-β-D-maltopyranoside]", "values": [
      {"measurement": "irritation in the rabbit eye model", "setting": "rabbit eye", "value": "non-irritating"}
    ]}
  ]
}
